The results in this text go back to paper PMC6010013, “Synthesis, physiochemical property and antimicrobial activity of novel quaternary ammonium salts” (Journal of Enzyme Inhibition and Medicinal Chemistry, 2017).

In the data set the test system is red blood cells. Briefly: Haemolysis assay. The settings on record: human red blood cells, 1 h at 37 ℃. The format is cell-based. The method, boiled down: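 Washed erythrocytes from heparinized healthy human blood were diluted to 0.2% in saline and mixed 1:1 with compound solutions (3.125–400 μg/mL before mixing) for 1 h at 37 °C. Supernatant absorbance at 540 nm was scaled to saline (0%) and distilled water (100%) controls. Results are triplicate mean ± SD.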

Consider “Benzalkonium chloride [BZK, reference compound]”, for which the Haemolysis rate reads like this: (6.25 μg/mL) 1.51 ± 0.31%; (12.50 μg/mL) 1.39 ± 0.38%; (25.00 μg/mL) 12.69 ± 1.87%; (50.00 μg/mL) 63.85 ± 4.56%; (100.00 μg/mL) 92.36 ± 3.78%; (200.00 μg/mL) 96.28 ± 2.97%. This substance gave a Haemolysis rate (400.00 μg/mL) of 98.53 ± 1.23%.
